These results are taken from publication PMC7140460, “Fluorinated Galactoses Inhibit Galactose-1-Phosphate Uridyltransferase and Metabolically Induce Galactosemia-like Phenotypes in HEK-293 Cells” (Cells, 2020).

This experiment has as its target T1, recombinant hGALT (human galactose-1-phosphate uridyltransferase) (Homo sapiens, UniProt P07902).
T1 construct: gene GALT; synthetic gene in pET-15b (NdeI-BamHI, insert 1149 bp), His-tagged, E. coli BL21(DE3)-RIPL, Ni-NTA purified; tag removal not mentioned
Nature of the experiment: coupled PGM/G6PDH assay, NADPH absorbance at […] nm. It is filed as biochemical.

T1 sequence (P07902 whole entry): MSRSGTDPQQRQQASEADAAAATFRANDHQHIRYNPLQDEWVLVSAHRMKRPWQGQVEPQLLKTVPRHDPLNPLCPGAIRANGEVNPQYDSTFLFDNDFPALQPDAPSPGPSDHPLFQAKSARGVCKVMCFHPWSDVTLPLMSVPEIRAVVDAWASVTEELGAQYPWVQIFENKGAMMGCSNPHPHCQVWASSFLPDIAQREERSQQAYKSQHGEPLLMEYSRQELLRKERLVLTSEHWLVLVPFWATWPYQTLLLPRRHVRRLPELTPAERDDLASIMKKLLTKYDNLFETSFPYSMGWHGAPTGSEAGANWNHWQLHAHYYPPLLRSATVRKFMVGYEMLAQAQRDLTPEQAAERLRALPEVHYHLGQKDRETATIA

For the compound `O=P(O)(O)O[C@H]1O[C@H](CO)[C@H](O)[C@H](O)[C@H]1F` [F-Gal-1-P, 2-fluoro-2-deoxy-galactose-1-phosphate], the Ki amounted to 900 µM.

Usually Ki stands for a measure of affinity in units of concentration, obtained from inhibition or displacement.
